Source: patent US20240358705A1, “COMPOSITIONS AND METHODS FOR TREATMENT OF CANCER” (Board of Supervisors of Louisiana State University and …, priority 2021, published 2024)

Experiments:
BM-MDSCs = experiment: XFe ATP rate assay, BM-MDSCs; type: cell-based, mouse; settings: 10 μM, 72 hours
Method: Bone marrow cells were isolated by flushing the tibia and femurs of wild-type C57BL/6N mice. […] To generate BM-MDSCs, 3×10^6 cells were plated in a 6-well dish and incubated at 37° C., 5% CO2 for 96 hours. For treatment, drugs were administered at either 3 μM or 10 μM concentrations and added to the BM-MDSC cell culture well 24 hours after plating.
Treated CD8 T cell were prepared following the in vitro T cell activation method and incubated for 72 hours at 37° C., 5% CO2. Treated BM-MDSCs were prepared followed the in vitro BM-MDSCs differentiation method. The XFe ATP rate assay preparation and analysis was conducted following the manufacturer's user guide and instructions. […] Treated cells were removed from culture, pelleted and resuspended in warm assay medium at a concentration of 3×10^6 cells/ml (1.5×10^5 cells/well) for CD8 T cells and 2.6×10^6 cells/ml (1.3×10^5 cells/well) for BM-MDSCs. Cells were adhered to the culture plate by centrifugation 200×G, for one minute with zero brake per the manufacturer's instructions for immobilization of non-adherent cells (Agilent, Santa Clara, CA). […] Results were procured using the Seahorse XF real-time ATP rate assay report generator.

CD8 T cells [1] = experiment: Quantitative PCR of glycolysis enzymes; type: cell-based, mouse; settings: 3 μM and 10 μM, 48 hours
Method: (§1) Lymph nodes and spleen were isolated from wild-type C57BL/6N mice. Tissue was mechanically dissociated with the back of a syringe plunger and passed through a 70 M filter. […] Treated cells were incubated at 37° C., 5% CO2 for the designed study duration.

B16 = experiment: In vivo adoptive cellular transfer, pmel-I, B16 tumor; set-up: species or system mouse; settings: T cells pre-treated with 10 μM; B16 tumor bearing mice; vs sham and DMSO pre-treated
Method: C57BL/6N mice were injected with 3×10^5 B16-OVA or B16 subcutaneously in the right flank. Five days after injection, mice were administered 200 μg cyclophosphamide monohydrate (Sigma #C73971G) dissolved in PBS by intraperitoneal injection to induce minor lymphodepletion. 48 hours after lymphodepletion, mice were intravenously adoptively transferred 2.5×10^6 CD8 OT-I or CD8 […] pre-treated ex vivo following the in vitro T cell activation method. Tumor growth rates were determined by tumor volume measurement beginning on day four and continuing three times per week for the study duration. Tumor volumes were determined by the ellipsoid formula: [(Length×Width^2)/2]. At the end of study, tumors were either fixed in 10% formalin or dissociated into a single-cell suspension for flow cytometry. Single-cell suspension was performed by chopping tumor tissue with scissors followed by a 30-minute incubation at 37° C. with 100 µg/ml DNase I (Roche #10104159001) and 0.5 U/ml Liberase (Roche #05401127001) in PBS. Solution was then diluted with cRPMI-1640 and passed through a 70 μm cell strainer, pelleted and resuspended in ACK lysis buffer to remove erythrocytes. Cells were then counted, filtered through a 70 μm cell strainer, and 10×10^6 cells were aliquoted and stained following the immune profiling by flow cytometry method.

[2] = three separate models of NASH; cited from earlier work
CD8 T cells [3] = experiment: Single-cell RNA sequencing; type: cell-based, mouse; settings: 10 μM, 16 hours
Method: Treated CD8 T cells were prepared following the in vitro T cell activation method and incubated for 16 hours at 37° C., […]. Treated T cells were mixed with treated BM-MDSCs at a […] (T cell): 30% (BM-MDSC) ratio moments before analysis. 10,000 cells with greater than 90% viability were used in the analysis at a concentration of 1,000 cells/μl. Barcoded cDNA libraries were prepared using a chromium next GEM single-cell 3′ reagent kit v3.1 (10× Genomics #1000127) following the manufacturer's instructions. […] (Agilent, Santa Clara, CA) DNA was subsequently quantified by fluorometry using a Qubit dsDNA high sensitivity assay kit (Invitrogen #Q32854). DNA libraries were pooled in equimolar ratios and sequenced using an Illumina NextSeq 500 (Illumina, San Diego, CA) following 10× Genomics' instructions. […] Doublets were subsequently removed using DoubletFinder (https://github.com/chris-mcginnis-ucsf/DoubletFinder). An unsupervised clustering and plotting using UMAPs was completed on the remaining cells. CD8 T cells were identified by first conducting CD3 followed by CD8 refinement and reclustering. To characterize the CD8 subsets, the top 50 differentially expressed genes between each subcluster were compared against publicly available datasets, and known genes associated with activation, exhaustion, and memory T cell states. To determine changes in metabolism and cytotoxicity, a curated list of genes associated with glucose, fatty acid, lipid metabolism, and cytotoxicity were generated. Average gene expression by treatment group was determined for each gene and visualized by heatmap.

CD3 T cells = experiment: Granzyme B and perforin immunoblot; type: cell-based, mouse; settings: for granzyme B protein production, increase compared to DMSO / granzyme B, Log2 fold change compared to DMSO / perforin production, increase compared to DMSO / perforin, Log2 fold change compared to DMSO: 72 hours
Method: as §1

CD4 T cells = experiment: CD4 T cell activation markers by flow cytometry; type: cell-based, mouse; settings: 72 hours
Method: as §1, with “duration. […] After staining, cells were pelleted, resuspended and run by a BD FACSymphony A3 flow cytometer.” for “duration.”

[4] = system: cytochrome family of enzymes; settings: cited from earlier work

O=c1nc(OC[C@@H]2COCCO2)cc2n1CCc1cc(C#CC3CC3)ccc1-2 [GLPG1205, 9-Cyclopropylethynyl-2-((S)-1-[1,4]dioxan-2-ylmethoxy)-6,7-dihydropyrimido[6,1-a]isoquinolin-4-one]
energetic phenotype (energetic map) (BM-MDSCs): glycolytic-predominant quiescent phenotype
percent of ATP generated by glycolysis (BM-MDSCs; DMSO 39.85%): 45.55%
percent of ATP generated by OXPHOS (BM-MDSCs; DMSO 60.15%): 54.45%
ATP production rate through mitochondrial OXPHOS (BM-MDSCs; DMSO 690.95): 537.83 pmol/min
total ATP production rate (BM-MDSCs; DMSO control 1149.1): 987.48 pmol/min
ECAR and PER (BM-MDSCs; vs DMSO): did not observe any changes
OCR (BM-MDSCs; vs DMSO): overall reduction in OCR
gene expression of enzymes in glycolytic pathway compared to DMSO control (CD8 T cells [1]): significant dose-dependent increase
tumor growth rate after adoptive transfer of pre-treated pmel-I CD8 T cells (B16): significant reduction in the tumor growth rate
macrophage accumulation [2]: significant decrease in macrophage accumulation
average expression of genes of glucose, fatty acid, lipid metabolism and cytotoxicity (heatmap) (CD8 T cells [3]): dramatic increase in gene expression
total number of CD8 T cells compared to DMSO control (CD8 T cells [3]): increase in total CD8
fraction of CD8 T cells identified as naïve (CD8 T cells [3]; DMSO 26.6%): 16.2%
fraction of CD8 T cells identified as early-effector (CD8 T cells [3]; DMSO 27.8%): 41.3%
fraction of CD8 T cells identified as effector (CD8 T cells [3]; DMSO 45.6%): 42.5%
granzyme B protein production, increase compared to DMSO (CD3 T cells; 3 μM): 3.57 times
granzyme B, Log2 fold change compared to DMSO (CD3 T cells; 3 μM): 1.84 Log2 fold change
perforin production, increase compared to DMSO (CD3 T cells; 3 μM): 3.09 times
perforin, Log2 fold change compared to DMSO (CD3 T cells; 3 μM): 1.62 Log2 fold change
granzyme B protein production, increase compared to DMSO (CD3 T cells; 10 μM): 4.04 times
granzyme B, Log2 fold change compared to DMSO (CD3 T cells; 10 μM): 2.01 Log2 fold change
perforin production, increase compared to DMSO (CD3 T cells; 10 μM): 3.86 times
perforin, Log2 fold change compared to DMSO (CD3 T cells; 10 μM): 1.95 Log2 fold change
expression of Granzyme B and Perforin (western blot) (CD3 T cells; activated T cells, high doses (FIG. 5)): dramatically increases the expression of Granzyme B and perforin
CD25 expression, increase vs DMSO (CD4 T cells; 3 μM): 14.28%
CTLA4 expression, increase vs DMSO (CD4 T cells; 3 μM): 30.31%
CD25 expression, increase vs DMSO (CD4 T cells; 10 μM): 11.37%
CTLA4 expression, increase vs DMSO (CD4 T cells; 10 μM): 51.16%
interaction with the cytochrome family of enzymes [4]: strong safety profiles
